Calls of active or inactive are those of the source. The calls are words filed in the database; no cut-off is given here.
Tests used:
Bos taurus = organism: Bos taurus; assay: Inhibition of [125I]ChTX binding to Maxi-K channels in bovine aortic sarcolemmal membranes; format: cell membranes; details: Aorta
[1] = target: Potassium voltage-gated channel subfamily A member 3 (Rattus norvegicus) (UniProt P15384); assay: Inhibition of [125I]ChTX binding to voltage-gated potassium channel in rat brain synaptic plasma membranes; No effect; format: cell membranes; details: Membrane
Sequence of Potassium voltage-gated channel subfamily A member 3 (Rattus norvegicus) (P15384 whole entry): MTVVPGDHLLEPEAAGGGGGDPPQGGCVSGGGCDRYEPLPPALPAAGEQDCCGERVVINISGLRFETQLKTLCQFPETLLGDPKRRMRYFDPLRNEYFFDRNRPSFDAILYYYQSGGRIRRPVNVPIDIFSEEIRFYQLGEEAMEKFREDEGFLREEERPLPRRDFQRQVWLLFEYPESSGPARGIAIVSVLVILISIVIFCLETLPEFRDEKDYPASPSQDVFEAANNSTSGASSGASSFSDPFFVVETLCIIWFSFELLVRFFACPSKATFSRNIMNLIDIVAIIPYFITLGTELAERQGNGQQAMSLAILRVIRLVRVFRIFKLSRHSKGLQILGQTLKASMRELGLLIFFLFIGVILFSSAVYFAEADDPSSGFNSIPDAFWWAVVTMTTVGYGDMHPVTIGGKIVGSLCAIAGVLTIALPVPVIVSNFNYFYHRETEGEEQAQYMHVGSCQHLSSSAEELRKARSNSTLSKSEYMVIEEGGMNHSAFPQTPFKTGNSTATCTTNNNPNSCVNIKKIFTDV

- inhibition (Bos taurus): 200 nM
- inhibition [1]: inactive
Structure (SMILES): CC1=CC[C@@]2(C)C[C@H](O)[C@@](O)(C(C)C)[C@@H]2CC1

Source: ChEMBL document CHEMBL1128868, “A carotane sesquiterpene as a potent modulator of the Maxi-K channel from Arthrinium phaesospermum” (Bioorg Med Chem Lett, 1995)
